Laboratory results: ChEMBL document CHEMBL1142640, “New natural product isolation and comparison of the secondary metabolite content of three distinct samples of the sea hare Aplysia dactylomela from tenerife” (J Nat Prod, 2000)
≈ marks a conversion by molar mass, not a printed value. Calls of active or inactive are those of the source. The calls are words filed in the database; no cut-off is given here.

Experiments:
[Chlorella] fusca [1] = Antialgal activity against Chlorella fusca at 50 ug/disk; assay type: functional; conditions: Scenedesmus fuscus
Priestia megaterium [2] = test: Antibacterial activity against Bacillus megaterium assessed as no colonies of test organism growing within inhibition zone at 50 ug/disk; assay type: functional; conditions: read-out: IZ
Microbotryum violaceum [3] = test: Antifungal activity against Microbotryum violaceae assessed as no colonies of test organism growing within inhibition zone at 50 ug/disk; assay type: functional; conditions: read-out: IZ
[4] = target: Tyrosine-protein kinase Lck (Homo sapiens) (UniProt P06239); test: Inhibition of p56lck
Sequence of Tyrosine-protein kinase Lck (Homo sapiens) (P06239 2-509 limits assumed): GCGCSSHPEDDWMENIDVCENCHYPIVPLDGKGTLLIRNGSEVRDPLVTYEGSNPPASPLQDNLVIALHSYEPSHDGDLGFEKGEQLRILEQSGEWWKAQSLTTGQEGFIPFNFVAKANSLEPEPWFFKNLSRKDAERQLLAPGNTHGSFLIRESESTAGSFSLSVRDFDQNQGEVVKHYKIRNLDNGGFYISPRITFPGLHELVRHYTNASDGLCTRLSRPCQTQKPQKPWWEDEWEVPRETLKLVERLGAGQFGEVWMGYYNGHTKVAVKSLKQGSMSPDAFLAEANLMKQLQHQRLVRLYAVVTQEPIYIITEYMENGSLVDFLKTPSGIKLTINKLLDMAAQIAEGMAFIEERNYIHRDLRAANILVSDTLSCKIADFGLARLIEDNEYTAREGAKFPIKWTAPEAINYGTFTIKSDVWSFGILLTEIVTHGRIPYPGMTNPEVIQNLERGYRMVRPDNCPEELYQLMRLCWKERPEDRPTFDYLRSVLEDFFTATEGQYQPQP

[5] = target: Human immunodeficiency virus type 1 reverse transcriptase (Human immunodeficiency virus 1) (UniProt Q72547); test: Inhibition of HIV1 reverse transcriptase
MCF7 = test: Cytotoxicity against human MCF7 cells; assay type: functional, cell-based
KB = test: Cytotoxicity against human KB cells; assay type: functional, cell-based
ZR-75-1 = test: Cytotoxicity against human ZR-75-1 cells; assay type: functional, cell-based
Lu1 = test: Cytotoxicity against human Lu1 cells; assay type: functional, cell-based
HepG2 = test: Cytotoxicity against human HepG2 cells; assay type: functional, cell-based
[6] = Cytotoxicity against human HMO2 cells; assay type: functional, cell-based
Mycotypha microspora [7] = test: Antifungal activity against Mycotypha microspora assessed as few colonies of test organism growing within inhibition zone at 50 ug/disk; assay type: functional; conditions: read-out: IZ
[8] = Toxicity in Artemia salina at 0.5 mg/mL after 24 hrs; assay type: organism-based; conditions: in vivo, read-out: Activity
Caenorhabditis elegans = test: Nematicidal activity against Caenorhabditis elegans; assay type: functional, organism-based
[9] = system: Aspergillus pseudoglaucus; test: Antifungal activity against Eurotium repens assessed as few colonies of test organism growing within inhibition zone at 50 ug/disk; assay type: functional; conditions: read-out: IZ
HeLa = test: Cytotoxicity against human HeLa cells; assay type: functional, cell-based
Microbotryum violaceum [10] = test: Antifungal activity against Microbotryum violaceae assessed as few colonies of test organism growing within inhibition zone at 50 ug/disk; assay type: functional; conditions: read-out: IZ
[11] = Antibacterial activity against Escherichia coli assessed as few colonies of test organism growing within inhibition zone at 50 ug/disk; conditions: read-out: IZ
[12] = (§1) Toxicity in Artemia salina at 0.5 mg/mL after 48 hrs; assay type: organism-based; conditions: in vivo, read-out: Activity
Escherichia coli = test: Antibacterial activity against Escherichia coli at 50 ug/disk; assay type: functional
Priestia megaterium [13] = test: Antibacterial activity against Bacillus megaterium at 50 ug/disk; assay type: functional
Artemia salina = test: as §1; assay type: organism-based; conditions: in vivo, 48 h
Microbotryum violaceum [14] = test: Antifungal activity against Microbotryum violaceae at 50 ug/disk; assay type: functional
Fusarium oxysporum [15] = test: Antifungal activity against Fusarium oxysporum at 50 ug/disk; assay type: functional
[16] = system: Aspergillus pseudoglaucus; test: Antifungal activity against Eurotium repens at 50 ug/disk; assay type: functional
Mycotypha microspora [17] = test: Antifungal activity against Mycotypha microspora at 50 ug/disk; assay type: functional
[18] = Cytotoxicity against human MEL28 cells; assay type: functional, cell-based; conditions: SK-MEL-28
Fusarium oxysporum [19] = test: Antifungal activity against Fusarium oxysporum assessed as few colonies of test organism growing within inhibition zone at 50 ug/disk; assay type: functional; conditions: read-out: IZ
Trypanosoma cruzi = test: Antitrypanosomal activity against Trypanosoma cruzi; assay type: functional, organism-based
A549 = test: Cytotoxicity against human A549 cells; assay type: functional, cell-based
HT-29 = test: Cytotoxicity against human HT29 cells; assay type: functional, cell-based
P388 = test: Cytotoxicity against mouse P388 cells; assay type: functional, cell-based
[20] = Cytotoxicity against rat L6 cells; assay type: cell-based; conditions: read-out: MIC
[Chlorella] fusca [21] = Antialgal activity against Chlorella fusca assessed as few colonies of test organism growing within inhibition zone at 50 ug/disk; assay type: functional; conditions: Scenedesmus fuscus; read-out: IZ

| SMILES | Activity ([Chlorella] fusca [1]) | Activity [4] | Activity [5] | IC50 (KB) | IC50 (ZR-75-1) | IC50 (Lu1) | Activity (Caenorhabditis elegans) | zone of inhibition at 50 µg/disc [9] | IC50 (HeLa) | mortality at 48 h, 0.5 mg/mL [12] | Activity (Escherichia coli) | Activity (Priestia megaterium [13]) | Activity (Artemia salina) | Activity (Microbotryum violaceum [14]) | Activity (Fusarium oxysporum [15]) | Activity [16] | Activity (Mycotypha microspora [17]) | further results |
| --- | --- | --- | --- | --- | --- | --- | --- | --- | --- | --- | --- | --- | --- | --- | --- | --- | --- | --- |
| CC1(C)C[C@@H](Br)C[C@](C)(O)[C@@]12C=C/C(=C/Br)CC2 | inactive | inactive | inactive | > 25 µg/mL | > 25 µg/mL | > 25 µg/mL | Active | 2 mm | 4.5 µg/mL (≈ 11.9 µM) | – | – | – | – | – | – | – | – | zone of inhibition at 50 µg/disc (Priestia megaterium [2]): 1 mm; zone of inhibition at 50 µg/disc (Microbotryum violaceum [3]): 3 mm; IC50 (MCF7): < 1 µg/mL; IC50 (HepG2): < 1 µg/mL; IC50 [6]: 17 µg/mL (≈ 45 µM); zone of inhibition at 50 µg/disc (Mycotypha microspora [7]): 1 mm; mortality at 24 h, 0.5 mg/mL [8]: 100% |
| C[C@@]1(Cl)C[C@@](C)(Br)[C@H](/C=C/Cl)C[C@@H]1Br | inactive | – | – | > 25 µg/mL | > 25 µg/mL | > 25 µg/mL | – | 1 mm | 1 µg/mL (≈ 2.74 µM) | 90% | – | – | – | – | – | – | – | zone of inhibition at 50 µg/disc (Microbotryum violaceum [10]): 1 mm; zone of inhibition at 50 µg/disc [11]: 1 mm |
| CC(=O)O[C@@H](C=C(C)C)C/C(C)=C1\CC[C@](C)(Br)[C@@H](Cl)C1 | inactive | – | – | > 25 µg/mL | > 25 µg/mL | > 25 µg/mL | – | 2 mm | – | – | inactive | inactive | Not Active | – | – | – | – | zone of inhibition at 50 µg/disc (Microbotryum violaceum [10]): 1 mm |
| CC1=C([C@H]2CC[C@](C)(Cl)[C@@H](Br)C2)C[C@@H](Br)C(C)(C)O1 [LAUCAPYRANOID A] | inactive | – | – | – | – | – | – | – | – | – | inactive | inactive | Not Active | inactive | inactive | inactive | inactive | – |
| CC(=O)O[C@@H]1C[C@@H](Br)C(C)(C)O[C@]1(C)[C@H]1CC[C@](C)(Cl)[C@@H](Br)C1 | inactive | – | – | – | – | – | – | – | – | – | inactive | inactive | Not Active | inactive | inactive | inactive | inactive | – |
| C=C1C[C@H](O)[C@H](Br)C(C)(C)[C@@]12CCC(C)=C(Cl)C2 [ELATOL] | inactive | inactive | inactive | > 25 µg/mL | > 25 µg/mL | > 25 µg/mL | Active | 25 mm | – | – | – | – | – | – | – | – | – | IC50 [18]: 0.1 µg/mL (≈ 0.3 µM); zone of inhibition at 50 µg/disc (Fusarium oxysporum [19]): 7 mm; zone of inhibition at 50 µg/disc (Priestia megaterium [2]): 2 mm; zone of inhibition at 50 µg/disc (Microbotryum violaceum [3]): 3 mm; IC50 (MCF7): < 1 µg/mL; IC50 (Trypanosoma cruzi): 0.92 µg/mL (≈ 2.76 µM); IC50 (HepG2): < 1 µg/mL; IC50 (A549): 0.1 µg/mL (≈ 0.3 µM); IC50 [6]: < 1 µg/mL; IC50 (HT-29): 0.1 µg/mL (≈ 0.3 µM); zone of inhibition at 50 µg/disc (Mycotypha microspora [7]): 25 mm; mortality at 24 h, 0.5 mg/mL [8]: 100%; IC50 (P388): 1 µg/mL (≈ 3 µM); MCC [20]: 3.3 µg/mL |
| CC1(C)O[C@](C)([C@H]2CC[C@](C)(Cl)[C@@H](Br)C2)[C@H](O)C[C@H]1Br [CAESPITOL] | – | inactive | inactive | > 25 µg/mL | > 25 µg/mL | > 25 µg/mL | Active | – | 100 µg/mL (≈ 231 µM) | 70% | inactive | inactive | – | inactive | inactive | inactive | – | zone of inhibition at 50 µg/disc ([Chlorella] fusca [21]): 3 mm |
| Cc1cc([C@H]2CC[C@](C)(Cl)[C@@H](Br)C2)co1 [FUROCAESPITANE] | inactive | – | – | – | – | – | – | – | – | – | inactive | inactive | Not Active | inactive | inactive | inactive | inactive | – |
| CC1(C)O[C@](C)([C@H]2CC[C@](C)(Cl)[C@@H](Br)C2)CC[C@H]1Br [CAESPITANE] | – | – | – | > 25 µg/mL | > 25 µg/mL | > 25 µg/mL | – | – | – | 40% | inactive | inactive | – | inactive | inactive | inactive | – | zone of inhibition at 50 µg/disc ([Chlorella] fusca [21]): 1 mm |
| C=CC(C)(O)CC[C@@H]1C(=C)CC[C@@H]2C(C)(C)[C@H](Br)CC[C@@]12C (some centres undefined) [ISOPINNATOL B] | inactive | – | – | > 25 µg/mL | > 25 µg/mL | > 25 µg/mL | – | – | – | – | inactive | inactive | Active | inactive | inactive | inactive | – | – |
